Results published in PubChem BioAssay (NCI).
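All cell lines were grown in 96-well plates and treated with compound for 48 hours. Definition used: TGI = concentration required for complete inhibition of growth.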

Key:
Test in all cases: DTP human tumour cell line panel, 48 h
BT-549 breast = test system: BT-549 breast
EKVX NSCLC = test system: EKVX NSCLC
HCC-2998 colon = test system: HCC-2998 colon
LOX IMVI melanoma = test system: LOX IMVI melanoma
M14 melanoma = test system: M14 melanoma
MALME-3M melanoma = test system: MALME-3M melanoma
MOLT-4 leukemia = test system: MOLT-4 leukemia
NCI-H460 lung = test system: NCI-H460 lung
OVCAR-5 ovarian = test system: OVCAR-5 ovarian
OVCAR-8 ovarian = test system: OVCAR-8 ovarian
SF-539 CNS = test system: SF-539 CNS
SNB-75 CNS = test system: SNB-75 CNS
U251 CNS = test system: U251 CNS
UACC-257 melanoma = test system: UACC-257 melanoma

## Cc1cccc(C(=O)O)c1CC1NCCC2c3ccccc3NC12 (stereo not given)
BT-549 breast
  TGI: > 100 µM
EKVX NSCLC
  TGI: > 100 µM
HCC-2998 colon
  TGI: > 100 µM
LOX IMVI melanoma
  TGI: > 100 µM
M14 melanoma
  TGI: > 100 µM
MALME-3M melanoma
  TGI: > 100 µM
MOLT-4 leukemia
  TGI: > 100 µM
NCI-H460 lung
  TGI: > 100 µM
OVCAR-5 ovarian
  TGI: > 100 µM
OVCAR-8 ovarian
  TGI: > 100 µM
SF-539 CNS
  TGI: > 100 µM
SNB-75 CNS
  TGI: > 100 µM
U251 CNS
  TGI: > 100 µM
UACC-257 melanoma
  TGI: > 100 µM

## COCn1c(C)c(C)c2c(=O)oc(C)nc21
BT-549 breast
  TGI: > 100 µM
EKVX NSCLC
  TGI: > 100 µM
HCC-2998 colon
  TGI: > 100 µM
LOX IMVI melanoma
  TGI: > 100 µM
M14 melanoma
  TGI: > 100 µM
MALME-3M melanoma
  TGI: > 100 µM
MOLT-4 leukemia
  TGI: > 100 µM
NCI-H460 lung
  TGI: > 100 µM
OVCAR-5 ovarian
  TGI: > 100 µM
OVCAR-8 ovarian
  TGI: > 100 µM
SF-539 CNS
  TGI: > 100 µM
SNB-75 CNS
  TGI: > 100 µM
U251 CNS
  TGI: > 100 µM
UACC-257 melanoma
  TGI: > 100 µM

## NC(N)=NS(=O)(=O)c1ccc(NC(=O)c2ccc3nc4ccccc4c(N)c3c2)cc1
BT-549 breast
  TGI: > 100 µM
EKVX NSCLC
  TGI: > 100 µM
HCC-2998 colon
  TGI: > 100 µM
LOX IMVI melanoma
  TGI: > 100 µM
M14 melanoma
  TGI: > 100 µM
MALME-3M melanoma
  TGI: > 100 µM
MOLT-4 leukemia
  TGI: > 100 µM
NCI-H460 lung
  TGI: > 100 µM
OVCAR-5 ovarian
  TGI: > 100 µM
OVCAR-8 ovarian
  TGI: > 100 µM
SF-539 CNS
  TGI: > 100 µM
SNB-75 CNS
  TGI: > 100 µM
U251 CNS
  TGI: > 100 µM
UACC-257 melanoma
  TGI: > 100 µM

## CC(=O)c1ccccc1NS(=O)(=O)c1ccc2nc(C)n(NS(=O)(=O)c3ccccc3C(C)=O)c(=O)c2c1
BT-549 breast
  TGI: > 100 µM
EKVX NSCLC
  TGI: > 100 µM
HCC-2998 colon
  TGI: > 100 µM
LOX IMVI melanoma
  TGI: > 100 µM
M14 melanoma
  TGI: > 100 µM
MALME-3M melanoma
  TGI: > 100 µM
MOLT-4 leukemia
  TGI: > 100 µM
NCI-H460 lung
  TGI: > 100 µM
OVCAR-5 ovarian
  TGI: > 100 µM
OVCAR-8 ovarian
  TGI: > 100 µM
SF-539 CNS
  TGI: > 100 µM
SNB-75 CNS
  TGI: > 100 µM
U251 CNS
  TGI: > 100 µM
UACC-257 melanoma
  TGI: > 100 µM

## Cc1cc(=O)c2ccccc2n1CCCCCCCCCCn1c(C)cc(=O)c2ccccc21
BT-549 breast
  TGI: 23 µM
EKVX NSCLC
  TGI: 33.9 µM
HCC-2998 colon
  TGI: 24.1 µM
LOX IMVI melanoma
  TGI: 17.8 µM
M14 melanoma
  TGI: > 100 µM
MALME-3M melanoma
  TGI: 34.4 µM
MOLT-4 leukemia
  TGI: 21.7 µM
NCI-H460 lung
  TGI: 87.4 µM
OVCAR-5 ovarian
  TGI: > 100 µM
OVCAR-8 ovarian
  TGI: 46.7 µM
SF-539 CNS
  TGI: 44.3 µM
SNB-75 CNS
  TGI: 87 µM
U251 CNS
  TGI: 29 µM
UACC-257 melanoma
  TGI: 25.2 µM

## C=CCn1c(-c2ccc(Cl)cc2Cl)csc1=Nc1c(C)n(C)n(-c2ccccc2)c1=O
BT-549 breast
  TGI: 26.4 µM
EKVX NSCLC
  TGI: 13.5 µM
HCC-2998 colon
  TGI: 29.1 µM
LOX IMVI melanoma
  TGI: 23.9 µM
M14 melanoma
  TGI: 23.8 µM
MALME-3M melanoma
  TGI: 31.4 µM
MOLT-4 leukemia
  TGI: 18.6 µM
NCI-H460 lung
  TGI: 27.1 µM
OVCAR-5 ovarian
  TGI: 31.1 µM
OVCAR-8 ovarian
  TGI: 21.7 µM
SF-539 CNS
  TGI: 30.4 µM
SNB-75 CNS
  TGI: 24.5 µM
U251 CNS
  TGI: 25.1 µM
UACC-257 melanoma
  TGI: 19.2 µM

## NC(=S)N/N=C1\CCCCC1C(O)(C(F)(F)Cl)C(F)(F)Cl (stereo not given)
BT-549 breast
  TGI: > 10 µM
EKVX NSCLC
  TGI: > 10 µM
HCC-2998 colon
  TGI: > 10 µM
LOX IMVI melanoma
  TGI: > 10 µM
M14 melanoma
  TGI: > 10 µM
MALME-3M melanoma
  TGI: > 10 µM
MOLT-4 leukemia
  TGI: > 10 µM
NCI-H460 lung
  TGI: > 10 µM
OVCAR-5 ovarian
  TGI: > 10 µM
OVCAR-8 ovarian
  TGI: > 10 µM
SF-539 CNS
  TGI: > 10 µM
SNB-75 CNS
  TGI: > 10 µM
U251 CNS
  TGI: > 10 µM
UACC-257 melanoma
  TGI: > 10 µM

## CC(=O)C1=C(C)N(c2ccccc2)C2(O)C=CC(=O)C3=C(O)c4ccccc4C(=O)C312 (stereo not given)
BT-549 breast
  TGI: 31.8 µM
EKVX NSCLC
  TGI: 49.1 µM
HCC-2998 colon
  TGI: 25.4 µM
LOX IMVI melanoma
  TGI: 83 µM
M14 melanoma
  TGI: 58.8 µM
MALME-3M melanoma
  TGI: 2.64 µM
MOLT-4 leukemia
  TGI: > 100 µM
NCI-H460 lung
  TGI: > 100 µM
OVCAR-5 ovarian
  TGI: 39.3 µM
OVCAR-8 ovarian
  TGI: 34.3 µM
SF-539 CNS
  TGI: 46.7 µM
SNB-75 CNS
  TGI: > 100 µM
U251 CNS
  TGI: 40.7 µM
UACC-257 melanoma
  TGI: 21 µM

## O[C@H]1[C@H](O)[C@@H](Cn2nnc(-c3ccccc3)c2-c2ccccc2)OCO[C@@H]1Cn1nnc(-c2ccccc2)c1-c1ccccc1
BT-549 breast
  TGI: 23.7 µM
EKVX NSCLC
  TGI: 30.1 µM
HCC-2998 colon
  TGI: 6.31 µM
LOX IMVI melanoma
  TGI: 5.85 µM
M14 melanoma
  TGI: 11.7 µM
MALME-3M melanoma
  TGI: 29.6 µM
MOLT-4 leukemia
  TGI: > 30.4 µM
NCI-H460 lung
  TGI: 13.4 µM
OVCAR-5 ovarian
  TGI: 6.49 µM
OVCAR-8 ovarian
  TGI: 18.1 µM
SF-539 CNS
  TGI: 10.8 µM
SNB-75 CNS
  TGI: 28.9 µM
U251 CNS
  TGI: > 41 µM
UACC-257 melanoma
  TGI: 15.1 µM

## CCN(CC)CCNC(=O)c1nn(-c2ccc(Cl)cc2)c2c1CCc1cc(OC)ccc1-2
BT-549 breast
  TGI: 32.1 µM
EKVX NSCLC
  TGI: 23.4 µM
HCC-2998 colon
  TGI: 5.52 µM
LOX IMVI melanoma
  TGI: 4.11 µM
M14 melanoma
  TGI: 5.86 µM
MALME-3M melanoma
  TGI: 2.95 µM
MOLT-4 leukemia
  TGI: 28.5 µM
NCI-H460 lung
  TGI: 11.8 µM
OVCAR-5 ovarian
  TGI: 15 µM
OVCAR-8 ovarian
  TGI: 28.2 µM
SF-539 CNS
  TGI: 13.4 µM
SNB-75 CNS
  TGI: 14.5 µM
U251 CNS
  TGI: 17.8 µM
UACC-257 melanoma
  TGI: 3.57 µM
